Results published in publication PMC12040169 (PLOS Biology, 2025).

Experiment: in vitro
Settings: human, hela cells, % viability

Row | SMILES | viability at 28.5 h, 10 µM [%]
1 | CN(CC(=O)N1CCC(Cc2ccccc2)CC1)S(=O)(=O)c1ccc2ccccc2c1 [CBK266931] | 78.2
2 | CS(=O)(=O)N(CC(=O)Nc1ccc(S(=O)(=O)N2CCCCCC2)cc1)c1ccc(F)cc1 [CBK266932] | 91.8
3 | COC(=O)c1cc(C)sc1NC(=S)Nc1ccn(Cc2ccc(Br)cc2)n1 [CBK266934] | 99.6
4 | COC(=O)c1c(NC(=S)Nc2cnccn2)sc2c1CCC2 [CBK266935] | 90.3
5 | S=C(Nc1ncn(Cc2ccc(Cl)c(Cl)c2)n1)Nc1ccc(Br)cc1Cl [CBK266940] | 92.7
6 | CC(=O)c1ccc(NC(=O)NNS(=O)(=O)c2ccc(F)cc2)cc1 [CBK266944] | 109
7 | COc1ccc(-c2c(C)nn3c(=O)c(Cc4ccccc4)c(C)[nH]c23)cc1 [CBK266951] | 94.2
8 | CN(C)C(CC(=O)Nc1cccc(Cl)c1Cl)C(=O)O (stereo not shown) [CBK266952] | 107
9 | Cc1cc(=O)oc2cc(NC(=S)NNC(=O)C3CCN(Cc4ccc(F)cc4Cl)CC3)ccc12 [CBK266953] | 99.4
10 | COc1ccc(NC(=O)CC(C(=O)O)N2CCOCC2)cc1 (stereo not shown) [CBK266955] | 101
11 | O=C(O)Cc1ccc(NC(=S)Nc2ccc([N+](=O)[O-])cc2)cc1 [CBK266959] | 98.7
12 | O=C(Nc1ccc(N2CCN(Cc3ccccc3)CC2)cc1)c1nc[nH]n1 [CBK266960] | 105
13 | Cn1nc([N+](=O)[O-])nc1Sc1nnnn1-c1ccc(C(=O)O)cc1 [CBK266961] | 109
14 | COC(=O)c1c(NC(=S)Nc2ccc(Br)cn2)sc2c1CCC(C)C2 (stereo not shown) [CBK266962] | 94.6
15 | Cc1nn(C)c(C(=O)NNC(=S)Nc2ccc(S(N)(=O)=O)cc2)c1Br [CBK266963] | 92.5
16 | CN(C)CCNC(=S)Nc1ccc([N+](=O)[O-])cc1 [CBK266964] | 97.7
17 | CCn1ncc(CN2CCN(C(=S)Nc3ccccc3C(F)(F)F)CC2)c1C [CBK266968] | 96.2

Row | SMILES | viability at 28.5 h, 10 µM [%]
18 | NS(=O)(=O)c1ccc(NC(=S)NNC(=O)c2cc(Br)ccc2Cl)cc1 [CBK266970] | 89.3
19 | O=C(CN1C(=O)c2ccccc2S1(=O)=O)Nc1ccccc1C(=O)N1CCOCC1 [CBK266975] | 93.3
20 | O=C(CC(NC1CCCC1)C(=O)O)Nc1ccc(F)cc1 (stereo not shown) [CBK266976] | 93.9
21 | CC(=O)c1ccc(NC(=O)COn2nnc3ccc([N+](=O)[O-])cc32)cc1 [CBK266980] | 101
22 | Cc1[nH]c2ccccc2c1Cc1n[nH]c(=S)n1Cc1ccccc1 [CBK266985] | 99.5
23 | COc1ccc(OCC(=O)Nc2ccc3c(c2)nc2n3CCN(Cc3ccccc3)C2)cc1 [CBK266989] | 97.6
24 | Cc1ccc(-c2c(C(=O)NNC(=S)NCc3ccco3)csc2C)cc1 [CBK266992] | 96.3
25 | CN(C)Cc1cc(C(C)(C)C)cc(CN(C)C)c1O [CBK266994] | 98.4
26 | Cc1c(Cc2ccccc2)c(=O)oc2c(CN3CCCC(C)C3)c(O)ccc12 (stereo not shown) [CBK266995] | 93.2
27 | CC(=O)c1cccc(NC(=O)Nc2cccc(S(=O)(=O)N3CCOCC3)c2)c1 [CBK266996] | 89.9
28 | O=c1[nH]c2ccc(S(=O)(=O)Nc3ccc(-c4ccccc4)cc3)cc2[nH]1 [CBK266999] | 99.8
29 | O=C(O)C(CC(=O)N1CCOCC1)NCc1ccccc1 (stereo not shown) [CBK267000] | 100
30 | Cc1cc(C)c(NS(=O)(=O)c2ccc(NC(=S)Nc3ccc(S(N)(=O)=O)cc3)cc2)c(C)c1 [CBK267005] | 94.2
31 | CC(C)(O)C#Cc1ccc(C(=O)N2CCN(C/C=C/c3ccccc3)CC2)s1 [CBK267007] | 99.5
32 | O=C(CC(C(=O)O)N1CCOCC1)Nc1ccccc1 (stereo not shown) [CBK267008] | 111
33 | Cc1nnc(N2C(=O)c3oc4ccc(Cl)cc4c(=O)c3C2c2cccnc2)s1 (stereo not shown) [CBK267010] | 105
34 | COc1cc([N+](=O)[O-])cc2cc(C(=O)NNC(=O)c3ccccc3Cl)c(=O)oc12 [CBK267011] | 92.8
